The values below are quoted from earlier work in US5733881A, “Opioid peptide antagonists” (Astra AB, priority 1994, dated 1998).

This series concerns μ opioid receptors. The following applies: GPI assay.

As for `Oc1ccc2c3c1O[C@H]1c4[nH]c5ccccc5c4C[C@@]4(O)[C@@H](C2)N(CC2CC2)CC[C@]314` [naltrindole], the “μ antagonist Ke” value is given as 29 nM.
